Where two headings read alike, the source gives them in different places.
Columns and labels:
[1] = Phase 1 single dose study, immediate release formulations: plasma pharmacokinetics; assay type: in vivo, human; conditions: for AUC(0-t): read-out: AUC0-24
From the text: (§1) A phase 1, randomized, double-blind, placebo-controlled study in healthy adult male volunteers evaluated single rising doses and the preliminary food effect for 2-((3-(4-cyanonaphthalen-1-yl)pyridine-4-yl)thio)-2-methylpropanoic acid at 6 dose groups with 8 subjects per group. […] Subjects in each dose group were randomized to receive a single dose of either 2-((3-(4-cyanonaphthalen-1-yl)pyridine-4-yl)thio)-2-methylpropanoic acid (6 subjects) or placebo (2 subjects). 2-((3-(4-cyanonaphthalen-1-yl)pyridine-4-yl)thio)-2-methylpropanoic acid was supplied as 1 mg oral solution, 2 mg oral solution, 5 mg tablets, or 20 mg tablets (depending on dose level).
Segment A evaluated single rising doses of 2 mg, 5 mg, 20 mg and 40 mg and the preliminary food effect of 2-((3-(4-cyanonaphthalen-1-yl)pyridine-4-yl)thio)-2-methylpropanoic acid at the 5 mg and 20 mg doses followed by multiple ascending doses of 1 mg, 5 mg and 10 mg qd in Segment B.
The oral solution was prepared by the clinical pharmacist in bulk within 24 hours of administration. The oral solution of 2-((3-(4-cyanonaphthalen-1-yl)pyridine-4-yl)thio)-2-methylpropanoic acid (0.033 mg/mL concentration) was prepared as a mixture of the appropriate amount of 2-((3-(4-cyanonaphthalen-1-yl)pyridine-4-yl)thio)-2-methylpropanoic acid powder, anhydrous dibasic sodium phosphate, and sterile water for irrigation; placebo oral solution was prepared as a vehicle using anhydrous dibasic sodium phosphate and sterile water for irrigation. […] Plasma samples were collected at the following time-points in relation to dosing on Day 1: pre-dose (within 30 minutes before dosing) and at 0.25, 0.5, 0.75, 1, 1.5, 2, 2.5, 3, 4, 5, 6, 8, 10, 12, 24, 30, 36, 48, 54, 60, and 72 hours post-dose, and were analysed for 2-((3-(4-cyanonaphthalen-1-yl)pyridine-4-yl)thio)-2-methylpropanoic acid content.

urine urate excretion = assay: Phase 1 single dose study, immediate release formulations: urine urate excretion; assay type: in vivo, human; conditions: 5 mg/Fasted
From the text: as §1
The mean plasma concentration-time profiles for the IR formulations under fed and fasted conditions are depicted in FIGS. 3a and 3b. Absorption of 2-((3-(4-cyanonaphthalen-1-yl)pyridine-4-yl)thio)-2-methylpropanoic acid following a single oral dose under fasted conditions was rapid. […] When 2-((3-(4-cyanonaphthalen-1-yl)pyridine-4-yl)thio)-2-methylpropanoic acid was administered with food, slightly slower absorption and lower exposure were observed. […] Important pharmacodynamic parameters related to the serum Uric Acid lowering effects are shown in the following two tables: […]

[2] = 2 mg single dose, Fasted, oral solution, Group 5, N = 6, Geomean
[3] = 5 mg single dose, Fasted, 1 × 5 mg tablet, Group 4, N = 6, Geomean
[4] = 5 mg single dose, Fed, 1 × 5 mg tablet, Group 6, N = 6, Geomean
[5] = 20 mg single dose, Fasted, 1 × 20 mg tablet, Group 1, N = 6, Geomean
[6] = 20 mg single dose, Fed, 1 × 20 mg tablet, Group 3, N = 6, Geomean
[7] = 40 mg single dose, Fasted, 2 × 20 mg tablet, Group 2, N = 6, Geomean
[8] = mg of urate per urine collection period

CC(C)(Sc1ccncc1-c1ccc(C#N)c2ccccc12)C(=O)O [2-((3-(4-cyanonaphthalen-1-yl)pyridine-4-yl)thio)-2-methylpropanoic acid]
AUC∞ [1, 2]: 45 ng·h/mL | Cmax [1, 2]: 36.4 ng/mL | t1/2 [1, 2]: 12.1 h | Tmax ([1]; 2 mg single dose, Fasted, oral solution, Group 5, N = 6, median): 0.500 h | AUC∞ [1, 3]: 121 ng·h/mL | Cmax [1, 3]: 72.9 ng/mL | t1/2 [1, 3]: 14.2 h | AUC∞ [1, 4]: 92.8 ng·h/mL | Cmax [1, 4]: 45.7 ng/mL | t1/2 [1, 4]: 12.7 h | Tmax ([1]; 5 mg single dose, Fed, 1 × 5 mg tablet, Group 6, N = 6, median): 1.25 h | Cmax ([1]; 5 mg/Fasted, immediate release, read-out: Cmax): 72.9 ng/mL | Cmax [1, 5]: 384 ng/mL | t1/2 [1, 5]: 10.9 h | Tmax ([1]; 20 mg single dose, Fasted, 1 × 20 mg tablet, Group 1, N = 6, median): 0.500 h | AUC∞ [1, 6]: 415 ng·h/mL | Cmax [1, 6]: 181 ng/mL | t1/2 [1, 6]: 13.8 h | Tmax ([1]; 20 mg single dose, Fed, 1 × 20 mg tablet, Group 3, N = 6, median): 1.25 h | AUC∞ [1, 7]: 1270 ng·h/mL | t1/2 [1, 7]: 9.51 h | Tmax ([1]; 40 mg single dose, Fasted, 2 × 20 mg tablet, Group 2, N = 6, median): 0.750 h | AUC(0-t) ([1]; male, human, plasma, oral, 2 mg, 2 mg/Fasted, immediate release): 38.8 ng·h/mL | AUC(0-t) ([1]; male, human, plasma, oral, 5 mg, 5 mg single dose, Fasted, 1 × 5 mg tablet, Group 4, N = 6, Geomean): 102 ng·h/mL | Tmax ([1]; male, human, plasma, oral, 5 mg, 5 mg single dose, Fasted, 1 × 5 mg tablet, Group 4, N = 6, median, read-out: Tmax): 0.625 h | AUC(0-t) ([1]; male, human, plasma, oral, 5 mg, 5 mg single dose, Fed, 1 × 5 mg tablet, Group 6, N = 6, Geomean): 75.2 ng·h/mL | AUC(0-t) ([1]; male, human, plasma, oral, 5 mg, 5 mg/Fasted, immediate release): 102 ng·h/mL | AUC(0-t) ([1]; male, human, plasma, oral, 20 mg, 20 mg single dose, Fasted, 1 × 20 mg tablet, Group 1, N = 6, Geomean): 463 ng·h/mL | AUC(0-t) ([1]; male, human, plasma, oral, 20 mg, 20 mg single dose, Fed, 1 × 20 mg tablet, Group 3, N = 6, Geomean): 350 ng·h/mL | AUC(0-t) ([1]; male, human, plasma, oral, 20 mg, 20 mg/Fasted, immediate release): 463 ng·h/mL | AUC(0-t) ([1]; male, human, plasma, oral, 40 mg, 40 mg single dose, Fasted, 2 × 20 mg tablet, Group 2, N = 6, Geomean): 1070 ng·h/mL | AUC(0-t) ([1]; male, human, plasma, oral, 40 mg, 40 mg/Fasted, immediate release): 1070 ng·h/mL | AUC(0-inf) ([1]; male, human, plasma, oral, 20 mg single dose, Fasted, 1 × 20 mg tablet, Group 1, N = 6, Geomean): 540 ng·h/mL | Cmax ([1]; male, human, plasma, oral, 40 mg single dose, Fasted, 2 × 20 mg tablet, Group 2, N = 6, Geomean, read-out: Cmax): 760 ng/mL | AUC(0-t) ([1]; male, human, plasma, po, 2 mg, 2 mg single dose, Fasted, oral solution, Group 5, N = 6, Geomean): 38.8 ng·h/mL | Tmax ([1]; male, human, plasma, po, 5 mg, immediate release tablet, oral, fasted, human, read-out: Tmax (called mean in b5, median)): 0.6 h | Tmax ([1]; male, human, plasma, po, 5 mg, immediate release tablet, oral, fasted, human, read-out: time at which the peak plasma concentration is observed (Tmax), range): 0.25 to 1.5 h | Cmax ([1]; male, human, plasma, po, 5 mg, read-out: geometric mean maximum plasma concentration (Cmax)): ~73 ng/mL | Urine Urate Excretion 0-6 hrs/0-24 hrs (urine urate excretion): 0.468 | Urine Urate Excretion UUE 0-6 hrs (urine urate excretion; [8]): 509 mg | Urine Urate Excretion UUE 6-12 hrs (urine urate excretion; [8]): 231 mg | Urine Urate Excretion UUE 12-24 hrs (urine urate excretion; [8]): 347 mg

Source: patent US20230011269A1, “PHARMACEUTICAL COMPOSITION COMPRISING A POTENT INHIBITOR OF URAT1” (Ardea Biosciences, Inc., priority 2015, published 2023)
